Data taken from paper PMC4276551 (Journal of the renin-angiotensin-aldosterone system : JRAAS, 2014).
Where a SMILES comes first, the peptide text is derived from it. Where no end group is shown, it is not given here. The star is where a group is joined. Cbz = O=C(OCc1ccccc1)*

Tests used:
[1] = test system: Ang I to Ang-(1–7) converting peptidase activity in isolated nuclei from NRK-52E cells; assay: Peptide metabolism: generation of Ang-; format: biochemical, rat; details: 37°C, 125I-Ang I 0.5 nM; SCH39370 10 μM, ZPP 50 μM; HPLC with γ detector
[2] = molecular target: T1, renin (NRK-52E cell nuclei) (Rattus norvegicus, UniProt P08424); assay: Renin activity assay in nuclear lysate of NRK-52E cells; format: biochemical; details: basal (control) nuclear lysate, aliskiren 1 μM, 37°C, 90 min; n = 3 passages
T1 sequence (P08424 65-402): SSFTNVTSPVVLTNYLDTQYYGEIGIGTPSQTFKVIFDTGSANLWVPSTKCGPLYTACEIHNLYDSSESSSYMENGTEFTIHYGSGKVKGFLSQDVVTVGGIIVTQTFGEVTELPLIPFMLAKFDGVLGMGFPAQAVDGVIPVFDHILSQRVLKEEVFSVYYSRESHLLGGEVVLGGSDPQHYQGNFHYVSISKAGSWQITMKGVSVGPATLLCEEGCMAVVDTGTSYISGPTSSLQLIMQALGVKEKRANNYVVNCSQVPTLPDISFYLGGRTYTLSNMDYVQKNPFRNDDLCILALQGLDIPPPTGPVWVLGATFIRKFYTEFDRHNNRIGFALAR

(pro)renin receptor = details: cited from earlier work
[3] = dose higher than the maximal recommended dose for heart failure and hypertension; without a further decline in blood pressure; cited from earlier work
[4] = pH 7.4

Molecule: O=C(O)C(O)CNC(=O)[C@H](Cc1ccccc1)NC(CCc1ccccc1)C(=O)O (stereo partly drawn) [SCH39370]
- Effect on generation of Ang-(1–7) in the nuclear extract [1]: did not block

Molecule: O=C[C@@H]1CCCN1C(=O)[C@@H]1CCCN1C(=O)OCc1ccccc1 [ZPP, Z-prolyl prolinal] (Cbz-Pro-Pro-aldehyde)
- Effect on generation of Ang-(1–7) in the nuclear extract [1]: did not block

Molecule: COCCCOc1cc(C[C@@H](C[C@H](N)[C@@H](O)C[C@H](C(=O)NCC(C)(C)C(N)=O)C(C)C)C(C)C)ccc1OC [aliskiren]
- Reduction of nuclear renin activity [2]: 83%
- Effect on binding of (pro)renin to the receptor ((pro)renin receptor): do not block

Molecule: CCOc1nc2cccc(C(=O)O)c2n1Cc1ccc(-c2ccccc2-c2nnn[nH]2)cc1 [candesartan]
- Effect on persistent proteinuria [3]: significantly reduced

Molecule: DRVYIHPFHL [Ang I]
- Half-life in nuclear cell extracts [4]: 1.22 h
